# Data as given in patent publication US7566712B2, “Biaryl piperazinyl-pyridine analogues” (Neurogen Corporation, priority 2003, dated 2009).
# pIC50: −log10 of the molar value.
# Target: T1, human capsaicin receptor (Homo sapiens, UniProt Q8NER1)
# T1 construct: pBK-CMV expression construct encoding the full length human capsaicin receptor; expressed in transfected cells
# Assay: Calcium mobilization assay, determination of antagonist activity (Example 6)
# Assay type: cell-based
# Conditions: determined as described in Example 6 (calcium mobilization, antagonist activity); Table II
# How it was run: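 Antagonism measured as inhibition of capsaicin-evoked (final concentration = EC50, from an 8-point 1 nM–3 μM curve) Fluo-3 calcium signal in stable hVR1-HEK293 cells. Test compounds at 1–5 μM final, 0.5–6 h dark preincubation at room temperature. IC50 = concentration giving 50% reduction versus agonist-only response.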
# T1 sequence (Q8NER1 whole entry): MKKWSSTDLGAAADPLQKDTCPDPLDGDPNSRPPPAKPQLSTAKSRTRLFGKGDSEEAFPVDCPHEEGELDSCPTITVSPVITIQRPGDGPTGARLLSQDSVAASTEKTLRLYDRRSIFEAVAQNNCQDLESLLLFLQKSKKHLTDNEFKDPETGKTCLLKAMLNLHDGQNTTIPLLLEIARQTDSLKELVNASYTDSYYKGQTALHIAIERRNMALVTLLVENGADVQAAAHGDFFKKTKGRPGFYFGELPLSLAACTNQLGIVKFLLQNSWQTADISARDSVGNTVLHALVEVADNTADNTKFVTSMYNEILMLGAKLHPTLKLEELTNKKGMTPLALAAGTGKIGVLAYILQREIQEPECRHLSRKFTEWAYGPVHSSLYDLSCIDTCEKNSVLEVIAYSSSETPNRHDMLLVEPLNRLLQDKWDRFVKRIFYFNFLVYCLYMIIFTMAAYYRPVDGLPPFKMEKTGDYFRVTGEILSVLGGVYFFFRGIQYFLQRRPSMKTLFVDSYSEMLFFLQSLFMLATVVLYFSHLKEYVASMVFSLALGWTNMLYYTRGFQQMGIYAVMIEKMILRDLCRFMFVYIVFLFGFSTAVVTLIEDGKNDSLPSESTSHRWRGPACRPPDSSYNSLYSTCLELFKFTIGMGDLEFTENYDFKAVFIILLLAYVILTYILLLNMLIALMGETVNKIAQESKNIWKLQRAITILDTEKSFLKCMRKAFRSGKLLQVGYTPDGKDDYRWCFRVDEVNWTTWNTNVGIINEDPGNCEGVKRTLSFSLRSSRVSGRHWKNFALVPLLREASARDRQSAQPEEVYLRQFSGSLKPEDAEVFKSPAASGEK
row,pIC50,SMILES
1,≥ 6.00,"O=C1CCC(=O)N1c1nc(-c2ccc(F)c(Cl)c2)cc(N2CCN(c3ncccc3C(F)(F)F)CC2)n1 [Example 680, 1-(4-(3-chloro-4-fluorophenyl)-6-{4-[3-(trifluoromethyl)pyridin-2-yl]piperazin-1-yl}pyrimidin-2-yl)pyrrolidine-2,5-dione]"
2,≥ 6.00,"Cc1cc(-c2cc(N3CCN(c4ncccc4C(F)(F)F)CC3)nc(C(C)N(C)C)n2)ccc1F (stereo not shown) [Example 681, 1-(4-(4-fluoro-3-methylphenyl)-6-{4-[3-(trifluoromethyl)pyridin-2-yl]piperazin-1-yl}pyrimidin-2-yl)-N,N-dimethylethanamine]"
3,≥ 6.00,"CCCN1CCN(c2nc(-c3ccc(F)c(C)c3)cc(N3CCN(c4ncccc4C(F)(F)F)CC3)n2)CC1 [Example 682, 4-(4-fluoro-3-methylphenyl)-2-(4-propylpiperazin-1-yl)-6-{4-[3-(trifluoromethyl)pyridin-2-yl]piperazin-1-yl}pyrimidine]"
4,≥ 6.00,"CC(C)n1ccnc1-c1nc(-c2ccc(F)c(Cl)c2)cc(N2CCN(c3ncccc3C(F)(F)F)CC2)n1 [Example 683, 4-(3-chloro-4-fluorophenyl)-2-(1-isopropyl-1H-imidazol-2-yl)-6-{4-[3-(trifluoromethyl)pyridin-2-yl]piperazin-1-yl}pyrim:dine]"
5,≥ 6.00,"Cc1cc(-c2cc(N3CCN(c4ncccc4C(F)(F)F)CC3)nc(-c3nccn3C(C)C)n2)ccc1F [Example 684, 4-(4-fluoro-3-methylphenyl)-2-(1-isopropyl-1H-imidazol-2-yl)-6-{4-[3-(trifluoromethyl)pyridin-2-yl]piperazin-1-yl}pyrimidine]"
6,≥ 6.00,"Cc1cc(-c2cc(N3CCN(c4ncccc4C(F)(F)F)CC3)nc(N3CCCCS3(=O)=O)n2)ccc1F [Example 685, 2-(4-(4-fluoro-3-methylphenyl)-6-{4-[3-(trifluoromethyl)pyridin-2-yl]piperazin-1-yl}pyrimidin-2-yl)-1,2-thiazinane 1,1-dioxide]"
7,≥ 6.00,"Cc1cc(-c2cc(N3CCN(c4ncccc4C(F)(F)F)CC3)nc(C(C)O)n2)ccc1F (stereo not shown) [Example 686, 1-(4-(4-fluoro-3-methylphenyl)-6-{4-[3-(trifluoromethyl)pyridin-2-yl]piperazin-1-yl}pyrimidin-2-yl)ethanol]"
8,≥ 6.00,"Cc1cc(-c2cc(N3CCN(c4ncccc4C(F)(F)F)CC3)nc(N(CCO)C(C)C)n2)ccc1F [Example 687, 2-[(4-(4-fluoro-3-methylphenyl)-6-{4-[3-(trifluoromethyl)pyridin-2-yl]piperazin-1-yl}pyrimidin-2-yl)(isopropyl)amino]ethanol]"
9,≥ 6.00,"Cc1cc(-c2cc(N3CCN(c4ncccc4C(F)(F)F)CC3)nc(N3CCN(S(C)(=O)=O)CC3)n2)ccc1F [Example 688, 4-(4-fluoro-3-methylphenyl)-2-[4-(methylsulfonyl)piperazin-1-yl]-6-{4-[3-(trifluoromethyl)pyridin-2-yl]piperazin-1-yl}pyrimidine]"
10,≥ 6.00,"Cc1cc(-c2cc(N3CCN(c4ncccc4C(F)(F)F)CC3)nc(-c3ccncc3)n2)ccc1F [Example 689, 4-(4-fluoro-3-methylphenyl)-2-pyridin-4-yl-6-{4-[3-(trifluoromethyl)pyridin-2-yl]piperazin-1-yl}pyrimidine]"
11,≥ 6.00,"Cc1cc(-c2cc(N3CCN(c4ncccc4C(F)(F)F)CC3)nc(NS(=O)(=O)C(C)C)n2)ccc1F [Example 690, N-(4-(4-fluoro-3-methylphenyl)-6-{4-[3-(trifluoromethyl)pyridin-2-yl]piperazin-1-yl}pyrimidin-2-yl)propane-2-sulfonamide]"
12,≥ 6.00,"Cc1cc(-c2cc(N3CCN(c4ncccc4C(F)(F)F)CC3)nc(N(C)S(=O)(=O)C(C)C)n2)ccc1F [Example 691, N-(4-(4-fluoro-3-methylphenyl)-6-{4-[3-(trifluoromethyl)pyridin-2-yl]piperazin-1-yl}pyrimidin-2-yl)-N-methytpropane-2-sulfonamide]"
13,≥ 6.00,"Cc1cc(-c2cc(N3CCN(c4ncccc4C(F)(F)F)CC3)nc(N(C(C)C)S(=O)(=O)C(C)C)n2)ccc1F [Example 692, N-(4-(4-fluoro-3-methylphenyl)-6-{4-[3-(trifluoromethyl)pyridin-2-yl]piperazin-1-yl}pyrimidin-2-yl)-N-isopropylpropane-2-sulfonamide]"
14,≥ 6.00,"Fc1ccc(-c2cc(N3CCN(c4ncccc4C(F)(F)F)CC3)nc(NC3CCCC3)n2)cc1Cl [Example 693, 4-(3-chloro-4-fluorophenyl)-N-cyclopentyl-6-{4-[3-(trifluoromethyl)pyridin-2-yl]piperazin-1-yl}pyrimidin-2-amine]"
15,≥ 6.00,"CNC[C@@H]1CCCN1c1nc(-c2ccc(F)c(Cl)c2)cc(N2CCN(c3ncccc3C(F)(F)F)CC2)n1 [Example 694, 1-[(2S)-1-(4-(3-chloro-4-fluorophenyl)-6-{4-[3-(trifluoromethyl)pyridin-2-yl]piperazin-1-yl}pyrimidin-2-yl)pyrrolidin-2-yl]-N-methylmethanamine]"
16,≥ 6.00,"Cc1cccnc1N1CCN(c2cc(-c3ccc(F)c(Cl)c3)nc(N3CCCC3C)n2)CC1 (stereo not shown) [Example 695, 4-(3-chloro-4-fluorophenyl)-6-[4-(3-methylpyridin-2-yl)piperazin-1-yl]-2-(2-methylpyrrolidin-1-yl)pyrimidine]"

row,pIC50,SMILES
1,≥ 6.00,"Cc1cc(-c2cc(N3CCN(c4ncccc4C)CC3)nc(N3CCCC3C)n2)ccc1F (stereo not shown) [Example 696, 4-(4-fluoro-3-methylphenyl)-6-[4-(3-methylpyridin-2-yl)piperazin-1-yl]-2-(2-methylpyrrolidin-1-yl)pyrimidine]"
2,≥ 6.00,"Cc1cc(-c2cc(N3CCN(c4ncccc4Cl)CC3)nc(N3CCCC3)n2)ccc1F [Example 697, 4-[4-(3-chloropyridin-2-yl)piperazin-1-yl]-6-(4-fluoro-3-methylphenyl)-2-pyrrolidin-1-ylpyrimidine]"
3,≥ 6.00,"Cc1cc(-c2cc(N3CCN(c4ncccc4Cl)CC3)nc(N3CCCC3C)n2)ccc1F (stereo not shown) [Example 698, 4-[4-(3-chloropyridin-2-yl)piperazin-1-yl]-6-(4-fluoro-3-methylphenyl)-2-(2-methylpyrrolidin-1-yl)pyrimidine]"
4,≥ 6.00,"CC1(C)CCCN1c1nc(-c2ccc(F)c(Cl)c2)cc(N2CCN(c3ncccc3C(F)(F)F)CC2)n1 [Example 699, 4-(3-chloro-4-fluorophenyl)-2-(2,2-dimethylpyrrolidin-1-yl)-6-{4-[3-(trifluoromethyl)pyridin-2-yl]piperazin-1-yl}pyrimidine]"
5,≥ 6.00,"Fc1ccc(-c2cc(N3CCN(c4ncccc4Cl)CC3)nc(SCc3ccccc3)n2)cc1Cl [Example 700, 2-(benzylthio)-4-(3-chloro-4-fluorophenyl)-6-[4-(3-chloropyridin-2-yl)piperazin-1-yl]pyrimidine]"
6,≥ 6.00,"O=S(=O)(Cc1ccccc1)c1nc(-c2ccc(F)c(Cl)c2)cc(N2CCN(c3ncccc3Cl)CC2)n1 [Example 701, 2-(benzylsulfonyl)-4-(3-chloro-4-fluorophenyl)-6-[4-(3-chloropyridin-2-yl)piperazin-1-yl]pyrimidine]"
7,≥ 6.00,"Cc1cccnc1N1CCN(c2cc(-c3ccc(F)cc3)nc(N3CCCC3C)n2)CC1 (stereo not shown) [Example 702, 4-(4-fluorophenyl)-6-[4-(3-methylpyridin-2-yl)piperazin-1-yl]-2-(2-methylpyrrolidin-1-yl)pyrimidine]"
8,≥ 6.00,"Cc1cccnc1N1CCN(c2cc(-c3ccc(F)c(F)c3)nc(N3CCCC3C)n2)CC1 (stereo not shown) [Example 703, 4-(3,4-difluorophenyl)-6-[4-(3-methylpyridin-2-yl)piperazin-1-yl]-2-(2-methylpyrrolidin-1-yl)pyrimidine]"
9,≥ 6.00,"CC1CCCN1c1nc(-c2ccc(F)c(F)c2)cc(N2CCN(c3ncccc3C(F)(F)F)CC2)n1 (stereo not shown) [Example 704, 4-(3,4-difluorophenyl)-2-(2-methylpyrrolidin-1-yl)-6-{4-[3-(trifluoromethyl)pyridin-2-yl]piperazin-1-yl}pyrimidine]"
10,≥ 6.00,"CC1CCCN1c1nc(-c2ccc(F)cc2)cc(N2CCN(c3ncccc3C(F)(F)F)CC2)n1 (stereo not shown) [Example 705, 4-(4-fluorophenyl)-2-(2-methylpyrrolidin-1-yl)-6-{4-[3-(trifluoromethyl)pyridin-2-yl]piperazin-1-yl}pyrimidine]"
11,≥ 6.00,"Cc1cccc(-c2cc(N3CCN(c4ncccc4C(F)(F)F)CC3)nc(N3CCCC3C)n2)c1 (stereo not shown) [Example 706, 4-(3-methylphenyl)-2-(2-methylpyrrolidin-1-yl)-6-{4-[3-(trifluoromethyl)pyridin-2-yl]piperazin-1-yl}pyrimidine]"
12,≥ 6.00,"CC1CCCN1c1nc(-c2ccc(F)c(Cl)c2)cc(N2CCN(c3ncccc3F)CC2)n1 (stereo not shown) [Example 707, 4-(3-chloro-4-fluorophenyl)-6-(4-(3-fluoropyridin-2-yl)piperazin-1-yl]-2-(2-methylpyrrolidin-1-yl)pyrimidine]"
13,≥ 6.00,"Cc1cc(-c2cc(N3CCN(c4ncccc4F)CC3)nc(N3CCCC3C)n2)ccc1F (stereo not shown) [Example 708, 4-(4-fluoro-3-methylphenyl)-6-[4-(3-fluoropyridin-2-yl)piperazin-1-yl]-2-(2-methylpyrrolidin-1-yl)pyrimidine]"
14,≥ 6.00,"CC1CCCN1c1nc(-c2ccc(F)c(Cl)c2)cc(N2CCN(c3ncccc3C#N)CC2)n1 (stereo not shown) [Example 709, 2-{4-[6-(3-chloro-4-fluorophenyl)-2-(2-methylpyrrolidin-1-yl)pyrimidin-4-yl]piperazin-1-yl}nicotirionitrile]"
15,≥ 6.00,"Fc1ccc(-c2cc(N3CCN(c4ncccc4C(F)(F)F)CC3)nc(N3CCC3)n2)cc1Cl [Example 710, 2-azetidin-1-yl-4-(3-chloro-4-fluorophenyl)-6-{4-[3-(trifluoromethyl)pyridin-2-yl]piperazin-1-yl}pyrimidine]"
